Laboratory results published in patent US20040043043A1, “Preparation of emulsions and concentrates thereof” (priority 2000, published 2004).

Assays:
[1] = Chemical stability study: vitamin contents on storage at 20 °C/ambient RH; assay type: physicochemical; conditions: Example 1 syrup; for Degraded: 18 months at 20 °C/ambient RH, '+' = increase; for Recovery (initial versus nominal): two batches
Description: A stability study was carried out in order to investigate the chemical stability of the liquid multivitamin product. The product was manufactured according to the protocol set out in Example 1. Two production batches were prepared and subjected to a stability study. The following sampling times were used:
20° C./ambient 0, 3, 6, 12 and 18 months Relative Humidity (RH):
The following results for the vitamin contents after 18 months were obtained for the two production batches respectively at 20° C./ambient RH: […]

[2] = as above; assay type: physicochemical; conditions: for Degraded / Content after 18 months / Recovery (initial versus nominal): Example 4 syrup; for Degraded: 18 months at 20 °C/ambient RH, '+' = increase; for Recovery (initial versus nominal): two batches; for Initial content: Example 4 vitamin and mineral syrup

In the case of Nc1nc2ncc(CNc3ccc(C(=O)N[C@@H](CCC(=O)O)C(=O)O)cc3)nc2c(=O)[nH]1 [Folic acid], the Degraded [1] was 21%, the “Vitamin content after 18 months” value ([1]; batch 1, 20 °C/ambient RH) was 71.4 μg/10 ml and the “Vitamin content after 18 months” value ([1]; batch 2, 20 °C/ambient RH) was 72.5 μg/10 ml. For the same molecule, the Initial vitamin content ([1]; production batch 1, time 0) was 92.1 μg/10 ml, the Initial vitamin content ([1]; production batch 2, time 0) was 92.2 μg/10 ml and the “Recovery (initial versus nominal)” value [1] was 102.4%. The Degraded [2] was 7.9%, the “Content after 18 months” value ([2]; batch 1, 20 °C/ambient RH) was 255 μg/5 ml and the “Content after 18 months” value ([2]; batch 2, 20 °C/ambient RH) was 244 μg/5 ml. For the same molecule, the “Recovery (initial versus nominal)” value [2] was 96.8%, the Initial content ([2]; batch 1, time 0) was 276 μg/5 ml and the Initial content ([2]; batch 2, time 0) was 266 μg/5 ml.

With CC1=C(/C=C/C(C)=C/C=C/C(C)=C/C=C/C=C(C)/C=C/C=C(C)/C=C/C2=C(C)CCCC2(C)C)C(C)(C)CCC1 [Betacaroten] the Degraded [2] was “+6.3%”, the “Content after 18 months” value ([2]; batch 1, 20 °C/ambient RH) was 2315 IU/5 ml and the “Content after 18 months” value ([2]; batch 2, 20 °C/ambient RH) was 2279 IU/5 ml. For the same molecule, the “Recovery (initial versus nominal)” value [2] was 110.8%, the Initial content ([2]; batch 1, time 0) was 2172 IU/5 ml and the Initial content ([2]; batch 2, time 0) was 2148 IU/5 ml.

In the case of Cc1c(C)c2c(c(C)c1O)CC[C@@](C)(CCC[C@H](C)CCC[C@H](C)CCCC(C)C)O2 [D-α-tocopherol], the Degraded [1] was 2%, the “Vitamin content after 18 months” value ([1]; batch 1, 20 °C/ambient RH) was 6.1 mg/10 ml and the “Vitamin content after 18 months” value ([1]; batch 2, 20 °C/ambient RH) was 6.2 mg/10 ml. The Initial vitamin content ([1]; production batch 1, time 0) was 6.2 mg/10 ml, the Initial vitamin content ([1]; production batch 2, time 0) was 6.3 mg/10 ml and the “Recovery (initial versus nominal)” value [1] was 99.2%. For the same molecule, the Degraded [2] was 4.0%, the “Content after 18 months” value ([2]; batch 1, 20 °C/ambient RH) was 12.0 IU/5 ml and the “Content after 18 months” value ([2]; batch 2, 20 °C/ambient RH) was 11.9 IU/5 ml. The “Recovery (initial versus nominal)” value [2] was 103.8%, the Initial content ([2]; batch 1, time 0) was 12.5 IU/5 ml and the Initial content ([2]; batch 2, time 0) was 12.4 IU/5 ml.

For CC(C)(CO)[C@@H](O)C(=O)NCCC(=O)O [Pantothenic acid], the Degraded [1] was 16%, the “Vitamin content after 18 months” value ([1]; batch 1, 20 °C/ambient RH) was 3.6, 3.6 mg/10 ml and the “Vitamin content after 18 months” value ([1]; batch 2, 20 °C/ambient RH) was 3.6, 3.6 mg/10 ml. The Initial vitamin content ([1]; production batch 1, time 0) was 4.3 mg/10 ml, the Initial vitamin content ([1]; production batch 2, time 0) was 4.4 mg/10 ml and the “Recovery (initial versus nominal)” value [1] was 98.9%. The Degraded [2] was 11.1%, the “Content after 18 months” value ([2]; batch 1, 20 °C/ambient RH) was 9.2, 9.2 mg/5 ml and the “Content after 18 months” value ([2]; batch 2, 20 °C/ambient RH) was 9.2, 9.2 mg/5 ml. The “Recovery (initial versus nominal)” value [2] was 101.5%, the Initial content ([2]; batch 1, time 0) was 10.4 mg/5 ml and the Initial content ([2]; batch 2, time 0) was 10.3 mg/5 ml.

In the case of Cc1cc2nc3c(=O)[nH]c(=O)nc-3n(C[C@H](O)[C@H](O)[C@H](O)CO)c2cc1C [Riboflavine], the Degraded [1] was “+2%”, the “Vitamin content after 18 months” value ([1]; batch 1, 20 °C/ambient RH) was 1.08 mg/10 ml and the “Vitamin content after 18 months” value ([1]; batch 2, 20 °C/ambient RH) was 1.09 mg/10 ml. The Initial vitamin content ([1]; production batch 1, time 0) was 1.05 mg/10 ml, the Initial vitamin content ([1]; production batch 2, time 0) was 1.06 mg/10 ml and the “Recovery (initial versus nominal)” value [1] was 95.9%. The Degraded [2] was 4.0%, the “Content after 18 months” value ([2]; batch 1, 20 °C/ambient RH) was 1.19, 1.19 mg/5 ml and the “Content after 18 months” value ([2]; batch 2, 20 °C/ambient RH) was 1.19, 1.19 mg/5 ml. For the same molecule, the “Recovery (initial versus nominal)” value [2] was 93.9%, the Initial content ([2]; batch 1, time 0) was 1.25 mg/5 ml and the Initial content ([2]; batch 2, time 0) was 1.23 mg/5 ml.

For O=C1O[C@H]([C@@H](O)CO)C(O)=C1O [Ascorbic acid], the Degraded [1] was 20%, the “Vitamin content after 18 months” value ([1]; batch 1, 20 °C/ambient RH) was 42.8 mg/10 ml and the “Vitamin content after 18 months” value ([1]; batch 2, 20 °C/ambient RH) was 43.6 mg/10 ml. The Initial vitamin content ([1]; production batch 1, time 0) was 54.4 mg/10 ml, the Initial vitamin content ([1]; production batch 2, time 0) was 55.3 mg/10 ml and the “Recovery (initial versus nominal)” value [1] was 97.4%. The Degraded [2] was 32.8%, the “Content after 18 months” value ([2]; batch 1, 20 °C/ambient RH) was 35.7 mg/5 ml and the “Content after 18 months” value ([2]; batch 2, 20 °C/ambient RH) was 34.9 mg/5 ml. For the same molecule, the “Recovery (initial versus nominal)” value [2] was 93.8%, the Initial content ([2]; batch 1, time 0) was 53.0 mg/5 ml and the Initial content ([2]; batch 2, time 0) was 52.0 mg/5 ml.

With C=C1CC[C@H](O)C/C1=C/C=C1\CCC[C@]2(C)[C@@H]([C@H](C)CCCC(C)C)CC[C@@H]12 [Cholecalciferol] the Degraded [1] was 10%, the “Vitamin content after 18 months” value ([1]; batch 1, 20 °C/ambient RH) was 7.3, 7.3 μg/10 ml and the “Vitamin content after 18 months” value ([1]; batch 2, 20 °C/ambient RH) was 7.3, 7.3 μg/10 ml. For the same molecule, the Initial vitamin content ([1]; production batch 1, time 0) was 8.0 μg/10 ml, the Initial vitamin content ([1]; production batch 2, time 0) was 8.1 μg/10 ml and the “Recovery (initial versus nominal)” value [1] was 97.6%. For the same molecule, the Degraded [2] was “+2.5%”, the “Content after 18 months” value ([2]; batch 1, 20 °C/ambient RH) was 519 IU/5 ml and the “Content after 18 months” value ([2]; batch 2, 20 °C/ambient RH) was 502 IU/5 ml. The “Recovery (initial versus nominal)” value [2] was 92.2%, the Initial content ([2]; batch 1, time 0) was 502 IU/5 ml and the Initial content ([2]; batch 2, time 0) was 494 IU/5 ml.

For Vitamin B12, the Degraded [2] was 16.7%, the “Content after 18 months” value ([2]; batch 1, 20 °C/ambient RH) was 9.7 μg/5 ml and the “Content after 18 months” value ([2]; batch 2, 20 °C/ambient RH) was 9.8 μg/5 ml. For the same molecule, the “Recovery (initial versus nominal)” value [2] was 104.5%, the Initial content ([2]; batch 1, time 0) was 11.6 μg/5 ml and the Initial content ([2]; batch 2, time 0) was 11.8 μg/5 ml.

With Cc1ncc(C[n+]2csc(CCO)c2C)c(N)n1 [Thiamine] the Degraded [1] was 8%, the “Vitamin content after 18 months” value ([1]; batch 1, 20 °C/ambient RH) was 0.88 mg/10 ml and the “Vitamin content after 18 months” value ([1]; batch 2, 20 °C/ambient RH) was 0.89 mg/10 ml. The Initial vitamin content ([1]; production batch 1, time 0) was 0.96 mg/10 ml, the Initial vitamin content ([1]; production batch 2, time 0) was 0.97 mg/10 ml and the “Recovery (initial versus nominal)” value [1] was 97.5%. For the same molecule, the Degraded [2] was 7.9%, the “Content after 18 months” value ([2]; batch 1, 20 °C/ambient RH) was 1.16, 1.16 mg/5 ml and the “Content after 18 months” value ([2]; batch 2, 20 °C/ambient RH) was 1.16, 1.16 mg/5 ml. The “Recovery (initial versus nominal)” value [2] was 96.9%, the Initial content ([2]; batch 1, time 0) was 1.27 mg/5 ml and the Initial content ([2]; batch 2, time 0) was 1.25 mg/5 ml.

For [Zn] [Zinc], the Degraded [2] was 1.2%, the “Content after 18 months” value ([2]; batch 1, 20 °C/ambient RH) was 8.4 mg/5 ml and the “Content after 18 months” value ([2]; batch 2, 20 °C/ambient RH) was 8.2 mg/5 ml. For the same molecule, the “Recovery (initial versus nominal)” value [2] was 102.5%, the Initial content ([2]; batch 1, time 0) was 8.2, 8.2 mg/5 ml and the Initial content ([2]; batch 2, time 0) was 8.2, 8.2 mg/5 ml.

With Cc1ncc(CO)c(CO)c1O [Pyridoxine] the Degraded [1] was “+2%”, the “Vitamin content after 18 months” value ([1]; batch 1, 20 °C/ambient RH) was 1.25 mg/10 ml and the “Vitamin content after 18 months” value ([1]; batch 2, 20 °C/ambient RH) was 1.24 mg/10 ml. For the same molecule, the Initial vitamin content ([1]; production batch 1, time 0) was 1.21 mg/10 ml, the Initial vitamin content ([1]; production batch 2, time 0) was 1.22 mg/10 ml and the “Recovery (initial versus nominal)” value [1] was 96.4%. For the same molecule, the Degraded [2] was “+1.1%”, the “Content after 18 months” value ([2]; batch 1, 20 °C/ambient RH) was 0.89 mg/5 ml and the “Content after 18 months” value ([2]; batch 2, 20 °C/ambient RH) was 0.88 mg/5 ml. The “Recovery (initial versus nominal)” value [2] was 99.4%, the Initial content ([2]; batch 1, time 0) was 0.88 mg/5 ml and the Initial content ([2]; batch 2, time 0) was 0.87 mg/5 ml.

With NC(=O)c1cccnc1 [Nicotinamide] the Degraded [1] was 4%, the “Vitamin content after 18 months” value ([1]; batch 1, 20 °C/ambient RH) was 11.6 mg/10 ml and the “Vitamin content after 18 months” value ([1]; batch 2, 20 °C/ambient RH) was 11.9 mg/10 ml. The Initial vitamin content ([1]; production batch 1, time 0) was 12.2 mg/10 ml, the Initial vitamin content ([1]; production batch 2, time 0) was 12.3 mg/10 ml and the “Recovery (initial versus nominal)” value [1] was 97.2%. The Degraded [2] was 4.7%, the “Content after 18 months” value ([2]; batch 1, 20 °C/ambient RH) was 18.5 mg/5 ml and the “Content after 18 months” value ([2]; batch 2, 20 °C/ambient RH) was 18.4 mg/5 ml. For the same molecule, the “Recovery (initial versus nominal)” value [2] was 100.8%, the Initial content ([2]; batch 1, time 0) was 19.5 mg/5 ml and the Initial content ([2]; batch 2, time 0) was 19.2 mg/5 ml.

In the case of O=C(O)CCCC[C@@H]1SC[C@@H]2NC(=O)N[C@@H]21 [Biotin], the Degraded [2] was 9.8%, the “Content after 18 months” value ([2]; batch 1, 20 °C/ambient RH) was 103 μg/5 ml and the “Content after 18 months” value ([2]; batch 2, 20 °C/ambient RH) was 100 μg/5 ml. The “Recovery (initial versus nominal)” value [2] was 102.3%, the Initial content ([2]; batch 1, time 0) was 109 μg/5 ml and the Initial content ([2]; batch 2, time 0) was 116 μg/5 ml.

With CC1=C(/C=C/C(C)=C/C=C/C(C)=C/CO)C(C)(C)CCC1 [Retinol] the Degraded [1] was 16%, the “Vitamin content after 18 months” value ([1]; batch 1, 20 °C/ambient RH) was 518 μg/10 ml and the “Vitamin content after 18 months” value ([1]; batch 2, 20 °C/ambient RH) was 525 μg/10 ml. For the same molecule, the Initial vitamin content ([1]; production batch 1, time 0) was 623 μg/10 ml, the Initial vitamin content ([1]; production batch 2, time 0) was 628 μg/10 ml and the “Recovery (initial versus nominal)” value [1] was 113%. For the same molecule, the Degraded [2] was 13%, the “Content after 18 months” value ([2]; batch 1, 20 °C/ambient RH) was 1869 IU/5 ml and the “Content after 18 months” value ([2]; batch 2, 20 °C/ambient RH) was 1862 IU/5 ml. For the same molecule, the “Recovery (initial versus nominal)” value [2] was 110.0%, the Initial content ([2]; batch 1, time 0) was 2145, 2145 IU/5 ml and the Initial content ([2]; batch 2, time 0) was 2145, 2145 IU/5 ml.
